Patent EP0425902A1, “Use of isosorbide 2-mononitrate in the preparation of pharmaceutical compositions for treating angina pectoris” (ISCOFAR Sas di Paolo E. Ghirardi, priority 1989, dated 1991)
Several values for one entry are separate records, joined by “and”; a condition that tells them apart may be missing. Equal entries are not always repeated. Entries after “also recorded” stand apart in the source; their conditions may differ.

Experiments:
rabbit aortic strips = assay: Induction of nitrate tolerance in rabbit aortic strips preincubated with nitroderivative
[1] = Clinical trials of tongue absorption administration on onset of anginal attack; conditions: human, in vivo
[2] = Long-period stability of active principle in tablets
cyclic GMP = assay: Cyclic GMP accumulation in laboratory tests
From the text: It has been furthermore shown through the laboratory tests that no relationship between the amount of the measured cyclic guanine mono-phosphate (GMP) and the extent of the inhibitory effect can be observed.
In our experiments, the development of nitrate tolerance seems to be related to cyclic GMP accumulation, being greater in the case of NTG, thus confirming that SH groups consumption is the molecular mechanism responsible for this phenomenon.

[3] = Acute treatment by tongue absorption, pulmonary artery pressure by cardiac catheter; conditions: in vivo
[4] = Clinical trial, ergometer bicycle effort test before and after two months of chronic 2MN treatment; conditions: human, in vivo
isolated rabbit heart = assay: Vasodilatory effect on isolated rabbit heart with vasopressin-induced spasm (coronary perfusion pressure)
Procedure: All nitroderivatives induce a tolerance phenomenon but the degree of the lack of the vasodilatory effect was lesser in the case of isosorbide 2-nitroderivative. […] Isolated rabbit hearts and aortic strips were used as experimental model to evaluate drugs acting on coronary resistance and vascular contractility.
Vasodilatory effect was evaluated on isolated rabbit heart in presence of vasopressin-induced spasm by using concentration of 10⁻⁵M of the tested compounds.

SMILES | degree of desensitization after induction of nitrate tolerance (rabbit aortic strips) | degree of tolerance induced (rabbit aortic strips) | effect on anginal attack [1] | loss of active principle in the pharmaceutical forms (tablets) in the long period [2] | cyclic GMP accumulation / increase (cyclic GMP) | Activity commences after taking the drug [3] [min] | Activity lasts (average) [3] [min] | Commencement of activity [3] | Max decrease in pulmonary artery pressure % [3] | Exercise time [4] | Max work tolerated (watt) [4] | S-T (mm) [4] | S-T Δ % [4] | anginal attacks, nitroglycerin consumption and arterial pressure [4] | tolerance after chronic treatment [4] | activity in reducing coronary perfusion pressure relative to other nitroderivatives (isolated rabbit heart) | inhibition at 10 µM (isolated rabbit heart; Oryctolagus cuniculus, isolated rabbit heart, vasopressin-induced spasm, 10⁻⁵M, read-out: reduce coronary spasm (coronary perfusion pressure, CPP)) [%]
O=[N+]([O-])O[C@H]1CO[C@H]2[C@@H]1OC[C@H]2O [2MN, isosorbide 2-mononitrate] | significantly lower | lesser degree of tolerance | able to prevent anginal attack or to cause its rapid regression; also recorded: Analogous results | minimal | lesser increase | 3 to 4 | 80 | 180 s and 250 s and 230 s and 160 s and 200 s and 210 s and 204.2 s | 20% and 38% and 30% and 27% and 31% and 40% and 29% and 30.7% | 8.6 ± 1.4 min and 8.9 ± 1.1 min | 144±36 watt and 148±36 watt | 1.5±0.7 mm and 1.8±0.9 mm | -29 (P<0.05) % and -25 (P<0.05) % | noted reduction | does not give rise to tolerance | more active than 5MN and ISDN | –
O=[N+]([O-])OCC(CO[N+](=O)[O-])O[N+](=O)[O-] [NTG, nitroglycerin, reference compound] | – | – | – | – | greater | – | – | – | – | – | – | – | – | – | – | – | 80
